Holding throughout (type): cell-based
Assay [1] concerns Streptococcus pneumoniae 1016. Put plainly: MIC, microtiter broth dilution (NCCLS M100-S14), S. pneumoniae 1016 (susceptible). The following applies: S. pneumoniae 1016 (susceptible). In a few lines: (§1)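 Where available, resistant strains were tested alongside the susceptible parent they derive from. The MIC, determined by tray-based broth dilution and NCCLS M100-S14 interpretation, served as the comparison value.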

In assay [2] the test system is Streptococcus pneumoniae 1095. The following applies: S. pneumoniae 1095 (ermB); microtiter broth dilution. In a few lines:
as §1

For assay [3], the system named is Streptococcus pneumoniae 1175. The following applies: S. pneumoniae 1175 (mefA); microtiter broth dilution. In a few lines:
as §1
For orientation: In broth dilution the organism is exposed to a series of concentrations in liquid medium.

Assay [4] relates to Streptococcus pyogenes 1079. Put plainly: MIC, microtiter broth dilution (NCCLS M100-S14), S. pyogenes 1079 (ermB). The following applies: S. pyogenes 1079 (ermB). The method, boiled down: as §1
The test system of assay [5] is Haemophilus influenzae 1218. Put plainly: MIC, microtiter broth dilution (NCCLS M100-S14), H. influenzae 1218 (susceptible). The following applies: H. influenzae 1218 (susceptible). The method, boiled down:
as §1

SMILES strings stand for the structures. Converted amounts (≈) assume the structure as drawn. Some results are limits rather than exact numbers.

Turning to `CCC1OC(=O)C(C)C(=O)C(C)C(OC2OC(C)CC(N(C)C)C2O)C(C)(OC)CC(C)C(=O)C(C)C2N(C3CCN(Cc4cccc5cnccc45)C3)C(=O)OC12C` [Example 9.07, 3-descladinosyl-11,12-dideoxy-6-O-methyl-3-oxo-12,11-(oxycarbonyl-(1-((isoquinolin-5-yl)-methyl)-(R)-pyrrolidin-3-yl)-imino)erythromycin A], the “MIC S. pneumo. 1016” value in assay [1] was <0.06 µg/mL. The “MIC S. pneumo. 1095” value in assay [2] was <0.06 µg/mL. Besides, the “MIC S. pneumo. 1175” value in assay [3] was 0.12 µg/mL (≈ 0.146 µM). The “MIC S. pyogenes 1079” value in assay [4] came to 2 µg/mL (≈ 2.43 µM). In addition, the “MIC H. influenzae 1218” value in assay [5] is 1 µg/mL (≈ 1.22 µM).
`CCC1OC(=O)C(C)C(=O)C(C)C(OC2OC(C)CC(N(C)C)C2O)C(C)(OC)CC(C)C(=O)C(C)C2N(C3CCN(S(=O)(=O)c4cccc5cnccc45)C3)C(=O)OC12C` (stereo not shown) [Example 9.08, isoquinoline-5-sulfonyl]: the “MIC S. pneumo. 1016” value in assay [1] is <0.06 µg/mL. The “MIC S. pneumo. 1095” value in assay [2] was 4 µg/mL (≈ 4.58 µM). Also, the “MIC S. pneumo. 1175” value in assay [3] is 0.12 µg/mL (≈ 0.137 µM). The “MIC S. pyogenes 1079” value in assay [4] was determined as 16 µg/mL (≈ 18.3 µM). Moreover, the “MIC H. influenzae 1218” value in assay [5] amounted to 0.25 µg/mL (≈ 0.286 µM).
In the same order, the values of `CCC1OC(=O)C(C)C(=O)C(C)C(OC2OC(C)CC(N(C)C)C2O)C(C)(OC)CC(C)C(=O)C(C)C2N(C3CCN(Cc4n[nH]c5ccccc45)C3)C(=O)OC12C` [Example 9.09, 3-descladinosyl-11,12-dideoxy-6-O-methyl-3-oxo-12,11-(oxycarbonyl-(1-((1H-indazol-3-yl)-methyl)-(R)-pyrrolidin-3-yl)-imino)-erythromycin A] are <0.06 µg/mL, 0.25 µg/mL (≈ 0.308 µM), 0.12 µg/mL (≈ 0.148 µM), 2 µg/mL (≈ 2.46 µM) and 0.12 µg/mL (≈ 0.148 µM).
For the molecule `CCC1OC(=O)C(C)C(=O)C(C)C(OC2OC(C)CC(N(C)C)C2O)C(C)(OC)CC(C)C(=O)C(C)C2N(C3CCN(Cc4cncc5ccccc45)C3)C(=O)OC12C` (stereo not shown) [Example 9.10, (isoquinolin-4-yl)methyl], the “MIC S. pneumo. 1016” value in assay [1] is <0.06 µg/mL. For the same molecule, the “MIC S. pneumo. 1095” value in assay [2] was 8 µg/mL (≈ 9.72 µM). The “MIC S. pneumo. 1175” value in assay [3] came to 0.25 µg/mL (≈ 0.304 µM). The “MIC S. pyogenes 1079” value in assay [4] worked out at 64 µg/mL (≈ 77.8 µM). Further, in assay [5], the “MIC H. influenzae 1218” value is 0.5 µg/mL (≈ 0.608 µM).
`CCC1OC(=O)C(C)C(=O)C(C)C(OC2OC(C)CC(N(C)C)C2O)C(C)(OC)CC(C)C(=O)C(C)C2N(CC3CCCN3C(=O)c3cc4ccccn4n3)C(=O)OC12C` [Example 10.14, 3-descladinosyl-11,12-dideoxy-6-O-methyl-3-oxo-12,11-(oxycarbonyl-((1-(pyrazolo[1,5-a]pyridine-2-carbonyl)-(R)-pyrrolidin-2-yl)-methyl)-imino)-erythromycin A]: the “MIC S. pneumo. 1016” value in assay [1] is <0.06 µg/mL. In addition, the “MIC S. pneumo. 1095” value in assay [2] was <0.06 µg/mL. For the same molecule, the “MIC S. pneumo. 1175” value in assay [3] came to 0.12 µg/mL (≈ 0.143 µM). In addition, the “MIC S. pyogenes 1079” value in assay [4] is 32 µg/mL (≈ 38.1 µM). The “MIC H. influenzae 1218” value in assay [5] was 0.25 µg/mL (≈ 0.298 µM).
In the case of `CCC1OC(=O)C(C)(F)C(=O)C(C)C(OC2OC(C)CC(N(C)C)C2O)C(C)(OC)CC(C)C(=O)C(C)C2N(CC3CCCN3C(=O)c3nc4ccccc4[nH]3)C(=O)OC12C` [Example 10.27, 3-descladinosyl-11,12-dideoxy-2-fluoro-6-O-methyl-3-oxo-12,11-(oxycarbonyl-(1-(1H-benzo[d]imidazole-2-carboxyl)-((R)-pyrrolidin-2-yl)-methyl)-imino)-erythromycin A], the “MIC S. pneumo. 1016” value in assay [1] was <0.06 µg/mL. In assay [2], the “MIC S. pneumo. 1095” value is <0.06 µg/mL. The “MIC S. pneumo. 1175” value in assay [3] is 0.25 µg/mL (≈ 0.291 µM). Further, the “MIC S. pyogenes 1079” value in assay [4] worked out at 8 µg/mL (≈ 9.32 µM). Moreover, the “MIC H. influenzae 1218” value in assay [5] was found to be 2 µg/mL (≈ 2.33 µM).
Turning to `CCC1OC(=O)C(C)C(=O)C(C)C(OC2OC(C)CC(N(C)C)C2O)C(C)(OC)CC(C)C(=O)C(C)C2N(CC3CCN(Cc4cccc5nccnc45)C3)C(=O)OC12C` [Example 11.02, 3-descladinosyl-11,12-dideoxy-6-O-methyl-3-oxo-12,11-(oxycarbonyl-(1-((quinoxalin-8-yl)-methyl)-((S)-pyrrolidin-3-yl)-methyl)-imino)-erythromycin A], in assay [1], the “MIC S. pneumo. 1016” value is <0.06 µg/mL. Moreover, the “MIC S. pneumo. 1095” value in assay [2] was <0.06 µg/mL. Further, in assay [3], the “MIC S. pneumo. 1175” value was 0.25 µg/mL (≈ 0.298 µM). Moreover, the “MIC S. pyogenes 1079” value in assay [4] worked out at 4 µg/mL (≈ 4.77 µM). Further, the “MIC H. influenzae 1218” value in assay [5] turned out to be 0.5 µg/mL (≈ 0.597 µM).
`CCC1OC(=O)C(C)C(=O)C(C)C(OC2OC(C)CC(N(C)C)C2O)C(C)(OC)CC(C)C(=O)C(C)C2N(CC3CCN(Cc4c[nH]c5ncccc45)C3)C(=O)OC12C` [Example 11.05, 3-descladinosyl-11,12-dideoxy-6-O-methyl-3-oxo-12,11-(oxycarbonyl-(1-((1H-pyrrolo[2,3-b]pyridin-3-yl)-methyl)-((S)-pyrrolidin-3-yl)-methyl)-imino)-erythromycin A]: in assay [1], the “MIC S. pneumo. 1016” value is <0.06 µg/mL. In addition, the “MIC S. pneumo. 1095” value in assay [2] was <0.06 µg/mL. In addition, the “MIC S. pneumo. 1175” value in assay [3] stood at 0.5 µg/mL (≈ 0.605 µM). Further, the “MIC S. pyogenes 1079” value in assay [4] was determined as 4 µg/mL (≈ 4.84 µM). For the same molecule, in assay [5], the “MIC H. influenzae 1218” value is 0.5 µg/mL (≈ 0.605 µM).
`CCC1OC(=O)C(C)C(=O)C(C)C(OC2OC(C)CC(N(C)C)C2O)C(C)(OC)CC(C)C(=O)C(C)C2N(CC3CCN(Cc4ccnc5ccccc45)C3)C(=O)OC12C` [Example 11.11, 3-descladinosyl-11,12-dideoxy-6-O-methyl-3-oxo-12,11-(oxycarbonyl-(1-((quinolin-4-yl)-methyl)-((S)-pyrrolidin-3-yl)-methyl)-imino)-erythromycin A]: the “MIC S. pneumo. 1016” value in assay [1] is <0.06 µg/mL. Also, in assay [2], the “MIC S. pneumo. 1095” value was 0.12 µg/mL (≈ 0.143 µM). The “MIC S. pneumo. 1175” value in assay [3] stood at 0.12 µg/mL (≈ 0.143 µM). The “MIC S. pyogenes 1079” value in assay [4] stood at 8 µg/mL (≈ 9.56 µM). For the same molecule, the “MIC H. influenzae 1218” value in assay [5] is 1 µg/mL (≈ 1.19 µM).
`CCC1OC(=O)C(C)C(=O)C(C)C(OC2OC(C)CC(N(C)C)C2O)C(C)(OC)CC(C)C(=O)C(C)C2N(CC3CCCN3C(=O)c3cccc4ncccc34)C(=O)OC12C` [Example 12.11, 3-descladinosyl-11,12-dideoxy-6-O-methyl-3-oxo-12,11-(oxycarbonyl-((1-(quinoline-5-carbonyl)-(S)pyrrolidin-2-yl)-methyl)-imino)-erythromycin A]: the “MIC S. pneumo. 1016” value in assay [1] was <0.06 µg/mL. For the same molecule, in assay [2], the “MIC S. pneumo. 1095” value was determined as 0.5 µg/mL (≈ 0.588 µM). Besides, in assay [3], the “MIC S. pneumo. 1175” value is 1 µg/mL (≈ 1.18 µM). Moreover, the “MIC S. pyogenes 1079” value in assay [4] was >64.00 µg/mL. The “MIC H. influenzae 1218” value in assay [5] amounted to 8 µg/mL (≈ 9.4 µM).
For `CCC1OC(=O)C(C)C(=O)C(C)C(OC2OC(C)CC(N(C)C)C2O)C(C)(OC)CC(C)C(=O)C(C)C2N(CC3(O)CCN(Cc4c[nH]c5ncccc45)CC3)C(=O)OC12C` (stereo not shown) [Example 14.01, (1H-pyrrolo[2,3-b]pyridin-3-yl)methyl], in assay [1], the “MIC S. pneumo. 1016” value was <0.06 µg/mL. In addition, the “MIC S. pneumo. 1095” value in assay [2] came to 32 µg/mL (≈ 37.4 µM). The “MIC S. pneumo. 1175” value in assay [3] was 1 µg/mL (≈ 1.17 µM). Moreover, in assay [4], the “MIC S. pyogenes 1079” value is >64.00 µg/mL. Also, the “MIC H. influenzae 1218” value in assay [5] was 4 µg/mL (≈ 4.67 µM).

The values above are taken from patent US7462600B2, “Macrolides” (Pfizer Inc, priority 2004, dated 2008).
